Experimental data from patent US7569517B2, “4-biphenyl-substituted pyrazolidin-3 5-diones pesticide agent and/or microbicide and/or herbicide” (Bayer CropScience AG, priority 2003, dated 2009).

Assays:
Type in all cases: in vivo
[1] = test system: greenhouse red spider mite (Tetranychus urticae); test: Tetranychus test (OP-resistance/spray treatment) (Example E); settings: sprayed bean leaf discs
Experimental: Tetranychus Test (OP-resistance/Spray Treatment)
(§1) • Solvents: 78 parts by weight of acetone • 1.5 parts by weight of dimethylformamide • Emulsifier: 0.5 part by weight of alkylaryl polyglycol ether
To prepare a suitable preparation of active compound, 1 part by weight of active compound is mixed with the stated amounts of solvents and emulsifier, and the concentrate is diluted with emulsifier-containing water to the desired concentration.
Discs of bean leaves (Phaseolus vulgaris) which are infested by all stages of the greenhouse red spider mite (Tetranychus urticae) are sprayed with a preparation of active compound of the desired concentration.
After the desired period of time, the activity in % is determined. 100% means that all spider mites have been killed; 0% means that none of the spider mites have been killed.

[2] = test system: larvae of the mustard beetle (Phaedon cochleariae); test: Phaedon test (spray treatment) (Example C); settings: sprayed Chinese cabbage discs
Experimental: Phaedon Test (Spray Treatment)
as §1
(§2) To produce a suitable preparation of active compound, 1 part by weight of active compound is mixed with the stated amounts of solvents and emulsifier, and the concentrate is diluted with emulsifier-containing water to the desired concentration.
After the desired period of time, the activity in % is determined. 100% means that all beetle larvae have been killed; 0% means that none of the beetle larvae have been killed.

[3] = test system: green peach aphid (Myzus persicae); test: Myzus test (spray treatment) (Example B); settings: sprayed Chinese cabbage discs
Experimental: Myzus Test (Spray Treatment)
as §1
To produce a suitable preparation of active compound, 1 part by weight of active compound is mixed with the stated amounts of solvent and emulsifier, and the concentrate is diluted with emulsifier-containing water to the desired concentration.
Discs of Chinese cabbage (Brassica pekinensis) which are infested by all stages of the green peach aphid (Myzus persicae) are sprayed with a preparation of active compound of the desired concentration.
After the desired period of time, the activity in % is determined. 100% means that all aphids have been killed; 0% means that none of the aphids have been killed.

[4] = test system: caterpillars of the army worm (Spodoptera frugiperda); test: Spodoptera frugiperda test (spray treatment) (Example D); settings: sprayed maize leaf discs
Experimental: Spodoptera Frugiperda Test (Spray Treatment)
as §1, §2
Discs of maize leaves (Zea mays) are sprayed with a preparation of active compound of the desired concentration and, after they have dried, populated with caterpillars of the army worm (Spodoptera frugiperda).
After the desired period of time, the activity in % is determined. 100% means that all caterpillars have been killed; 0% means that none of the caterpillars have been killed.

Q: For `Cc1ccc(-c2cc(Cl)ccc2Cl)cc1C1(Cl)C(=O)N2CCCCN2C1=O` [Ex. I-1-14], which “Kill rate in % after 5d” value ([1]; 500 g/ha) is on record?
A: Its value is 100%.

Q: What about the “Kill rate in % after 7d” value ([2]; 500 g/ha) of the same compound?
A: The value was 100%.

Q: `Cc1cccc(-c2ccc(C)c(C3(Cl)C(=O)N4CCCCN4C3=O)c2)c1` [Ex. I-1-10] was tested. Which “Kill rate in % after 5d” value ([1]; 500 g/ha) did it give?
A: The value was 100%.

Q: And the “Kill rate in % after 7d” value ([2]; 500 g/ha)?
A: The value was 100%.

Q: What does the source list for `Cc1ccc(-c2cccc([N+](=O)[O-])c2)cc1C1(Cl)C(=O)N2CCOCCN2C1=O` [Ex. I-2-27]?
A: Kill rate in % after 5d ([1]; 100 g/ha): 100%; Kill rate in % after 7d ([2]; 500 g/ha): 100%

Q: For `Cc1ccc(-c2cc(F)ccc2F)cc1C1(Cl)C(=O)N2CCOCCN2C1=O` [Ex. I-2-17], which “Kill rate in % after 7d” value ([2]; 500 g/ha) is on record?
A: Its value is 100%.

Q: `Cc1ccc(-c2cccc(Cl)c2Cl)cc1C1(Cl)C(=O)N2CCCCN2C1=O` [Ex. I-1-12] was tested. Which “Kill rate in % after 5d” value ([1]; 500 g/ha) did it give?
A: The value was 90%.

Q: How did the “Kill rate in % after 5d” value ([3]; 100 g/ha) turn out when `Cc1ccc(-c2ccc(F)cc2)cc1C1(Cl)C(=O)N2CCCCN2C1=O` [Ex. I-1-1] was run?
A: The value was 100%.

Q: And the “Kill rate in % after 7d” value ([2]; 100 g/ha)?
A: Its value is 100%.

Q: `Cc1ccc(-c2ccc(F)cc2F)cc1C1(Cl)C(=O)N2CCOCCN2C1=O` [Ex. I-2-16] was tested. Which “Kill rate in % after 7d” value ([4]; 500 g/ha) did it give?
A: Its value is 100%.

Q: What about the “Kill rate in % after 5d” value ([3]; 500 g/ha) of the same compound?
A: The value was 100%.

Q: How did the “Kill rate in % after 7d” value ([2]; 500 g/ha) turn out when `Cc1ccc(-c2cc(F)ccc2F)cc1C1(Cl)C(=O)N2CCCCN2C1=O` [Ex. I-1-18] was run?
A: Its value is 100%.

Q: With `Cc1ccc(-c2ccccc2Cl)cc1C1(Cl)C(=O)N2CCOCCN2C1=O` [Ex. I-2-2] as the compound, how does the “Kill rate in % after 7d” value ([4]; 500 g/ha) read?
A: The value was 100%.

Q: For `COc1ccc(-c2ccc(C)c(C3(Cl)C(=O)N4CCOCCN4C3=O)c2)cc1Cl` [Ex. I-2-35], which “Kill rate in % after 5d” value ([3]; 500 g/ha) is on record?
A: The value was 100%.

Q: `Cc1ccc(-c2ccccc2)cc1C1(Cl)C(=O)N2CCCCN2C1=O` [Ex. I-1-3] was tested. Which “Kill rate in % after 5d” value ([1]; 500 g/ha) did it give?
A: The value was 100%.

Q: How did the “Kill rate in % after 7d” value ([2]; 500 g/ha) turn out when `Cc1ccc(-c2ccc(C)c(C3(Cl)C(=O)N4CCOCCN4C3=O)c2)cc1` [Ex. I-2-10] was run?
A: The value was 100%.

Q: How did the “Kill rate in % after 7d” value ([4]; 100 g/ha) turn out when `Cc1ccc(-c2ccc(F)cc2)cc1C1(Cl)C(=O)N2CCOCCN2C1=O` [Ex. I-2-7] was run?
A: Its value is 100%.

Q: What about the “Kill rate in % after 5d” value ([1]; 100 g/ha) of the same compound?
A: Its value is 90%.

Q: For `Cc1ccc(-c2ccc(Cl)c(Cl)c2)cc1C1(Cl)C(=O)N2CCCCN2C1=O` [Ex. I-1-15], which “Kill rate in % after 7d” value ([4]; 500 g/ha) is on record?
A: The value was 100%.

Q: Which “Kill rate in % after 7d” value ([4]; 500 g/ha) does the source give for `Cc1ccc(-c2ccc(Cl)cc2)cc1C1(Cl)C(=O)N2CCOCCN2C1=O` [Ex. I-2-4] here?
A: Its value is 100%.

Q: Which “Kill rate in % after 5d” value ([1]; 500 g/ha) does the source give for `Cc1cccc(-c2ccc(C)c(C3(Cl)C(=O)N4CCOCCN4C3=O)c2)c1` [Ex. I-2-9] here?
A: Its value is 90%.

Q: With `Cc1ccc(-c2ccc(F)cc2F)cc1C1(Cl)C(=O)N2CCCCN2C1=O` [Ex. I-1-17] as the compound, how does the “Kill rate in % after 5d” value ([3]; 500 g/ha) read?
A: Its value is 90%.

Q: And the “Kill rate in % after 7d” value ([2]; 500 g/ha)?
A: Its value is 100%.

Q: With `Cc1ccc(-c2ccc(C)c(C3(Cl)C(=O)N4CCCCN4C3=O)c2)cc1` [Ex. I-1-11] as the compound, how does the “Kill rate in % after 7d” value ([2]; 500 g/ha) read?
A: Its value is 100%.

Q: For `Cc1ccc(-c2ccc(C(F)(F)F)cc2)cc1C1(Cl)C(=O)N2CCCCN2C1=O` [Ex. I-1-22], which “Kill rate in % after 7d” value ([4]; 100 g/ha) is on record?
A: Its value is 100%.

Q: For `Cc1ccc(-c2ccccc2F)cc1C1(Cl)C(=O)N2CCOCCN2C1=O` [Ex. I-2-5], which “Kill rate in % after 5d” value ([1]; 500 g/ha) is on record?
A: Its value is 90%.

Q: How did the “Kill rate in % after 7d” value ([2]; 500 g/ha) turn out when `Cc1ccc(-c2cc(Cl)cc(Cl)c2)cc1C1(Cl)C(=O)N2CCOCCN2C1=O` [Ex. I-2-15] was run?
A: The value was 100%.

Q: How did the “Kill rate in % after 7d” value ([4]; 500 g/ha) turn out when `Cc1ccc(-c2cc(Cl)ccc2Cl)cc1C1(Cl)C(=O)N2CCOCCN2C1=O` [Ex. I-2-13] was run?
A: Its value is 100%.

Q: How did the “Kill rate in % after 7d” value ([4]; 500 g/ha) turn out when `Cc1ccc(-c2ccc(Cl)cc2)cc1C1(Cl)C(=O)N2CCCCN2C1=O` [Ex. I-1-6] was run?
A: The value was 100%.

Q: What about the “Kill rate in % after 7d” value ([2]; 500 g/ha) of the same compound?
A: The value was 100%.

Q: For `Cc1ccc(-c2ccc(Oc3ccccc3)cc2)cc1C1(Cl)C(=O)N2CCOCCN2C1=O` [Ex. I-2-29], which “Kill rate in % after 5d” value ([3]; 500 g/ha) is on record?
A: Its value is 100%.

Q: How did the “Kill rate in % after 7d” value ([2]; 500 g/ha) turn out when `Cc1ccc(-c2ccc(Oc3ccc(Cl)cc3)cc2)cc1C1(Cl)C(=O)N2CCOCCN2C1=O` [Ex. I-2-34] was run?
A: The value was 100%.

Q: How did the “Kill rate in % after 5d” value ([3]; 500 g/ha) turn out when `COc1ccc(Cl)cc1-c1ccc(C)c(C2(Cl)C(=O)N3CCCCN3C2=O)c1` [Ex. I-1-34] was run?
A: The value was 100%.

Q: How did the “Kill rate in % after 5d” value ([1]; 500 g/ha) turn out when `Cc1ccc(-c2ccc(OC(F)(F)F)cc2)cc1C1(Cl)C(=O)N2CCOCCN2C1=O` [Ex. I-2-28] was run?
A: Its value is 90%.

Q: With `COc1ccccc1-c1ccc(C)c(C2(Cl)C(=O)N3CCOCCN3C2=O)c1` [Ex. I-2-22] as the compound, how does the “Kill rate in % after 5d” value ([1]; 100 g/ha) read?
A: Its value is 90%.

Q: For `Cc1ccc(-c2cccc(F)c2)cc1C1(Cl)C(=O)N2CCOCCN2C1=O` [Ex. I-2-6], which “Kill rate in % after 5d” value ([3]; 500 g/ha) is on record?
A: The value was 90%.

Q: What about the “Kill rate in % after 7d” value ([2]; 500 g/ha) of the same compound?
A: The value was 100%.

Q: Which “Kill rate in % after 5d” value ([3]; 500 g/ha) does the source give for `Cc1ccc(-c2ccccc2F)cc1C1(Cl)C(=O)N2CCCCN2C1=O` [Ex. I-1-7] here?
A: The value was 90%.

Q: And the “Kill rate in % after 7d” value ([2]; 500 g/ha)?
A: Its value is 100%.

Q: How did the “Kill rate in % after 5d” value ([1]; 500 g/ha) turn out when `Cc1ccc(-c2ccc(OC(F)(F)F)cc2)cc1C1(Cl)C(=O)N2CCCCN2C1=O` [Ex. I-1-29] was run?
A: The value was 100%.

Q: What about the “Kill rate in % after 7d” value ([2]; 500 g/ha) of the same compound?
A: The value was 100%.

Q: What does the source list for `Cc1ccc(-c2ccc(F)c(Cl)c2)cc1C1(Cl)C(=O)N2CCOCCN2C1=O` [Ex. I-2-18]?
A: Kill rate in % after 7d ([4]; 500 g/ha): 100%; Kill rate in % after 5d ([3]; 500 g/ha): 90%

Q: Which “Kill rate in % after 5d” value ([1]; 500 g/ha) does the source give for `Cc1ccc(-c2ccccc2C(F)(F)F)cc1C1(Cl)C(=O)N2CCOCCN2C1=O` [Ex. I-2-19] here?
A: The value was 90%.

Q: Which results are given for `Cc1ccc(-c2ccc(Cl)cc2Cl)cc1C1(Cl)C(=O)N2CCCCN2C1=O` [Ex. I-1-13]?
A: Kill rate in % after 5d ([3]; 500 g/ha): 90%; Kill rate in % after 5d ([1]; 500 g/ha): 100%

Q: How did the “Kill rate in % after 7d” value ([2]; 500 g/ha) turn out when `Cc1ccc(-c2ccc(Cl)c(Cl)c2)cc1C1(Cl)C(=O)N2CCOCCN2C1=O` [Ex. I-2-14] was run?
A: The value was 100%.

Q: Which “Kill rate in % after 7d” value ([4]; 500 g/ha) does the source give for `Cc1ccc(-c2ccc(F)c(Cl)c2)cc1C1(Cl)C(=O)N2CCCCN2C1=O` [Ex. I-1-19] here?
A: The value was 100%.

Q: For `COc1ccc(Cl)c(-c2ccc(C)c(C3(Cl)C(=O)N4CCOCCN4C3=O)c2)c1` [Ex. I-2-23], which “Kill rate in % after 5d” value ([3]; 500 g/ha) is on record?
A: Its value is 100%.

Q: Which “Kill rate in % after 7d” value ([4]; 500 g/ha) does the source give for `Cc1ccc(-c2cccc(Cl)c2)cc1C1(Cl)C(=O)N2CCOCCN2C1=O` [Ex. I-2-3] here?
A: Its value is 100%.

Q: With `Cc1ccc(-c2ccc(Cl)cc2Cl)cc1C1(Cl)C(=O)N2CCOCCN2C1=O` [Ex. I-2-12] as the compound, how does the “Kill rate in % after 7d” value ([2]; 500 g/ha) read?
A: Its value is 100%.

Q: For `Cc1ccc(-c2ccc(C(F)(F)F)cc2)cc1C1(Cl)C(=O)N2CCOCCN2C1=O` [Ex. I-2-21], which “Kill rate in % after 7d” value ([4]; 500 g/ha) is on record?
A: Its value is 100%.

Q: Which results are given for `Cc1ccc(-c2cccc(F)c2)cc1C1(Cl)C(=O)N2CCCCN2C1=O` [Ex. I-1-8]?
A: Kill rate in % after 7d ([4]; 500 g/ha): 100%; Kill rate in % after 5d ([1]; 500 g/ha): 100%

Q: Which “Kill rate in % after 7d” value ([2]; 500 g/ha) does the source give for `Cc1ccc(-c2cccc(C(F)(F)F)c2)cc1C1(Cl)C(=O)N2CCOCCN2C1=O` [Ex. I-2-20] here?
A: Its value is 100%.

Q: `Cc1ccc(-c2ccccc2)cc1C1(Cl)C(=O)N2CCOCCN2C1=O` [Ex. I-2-1] was tested. Which “Kill rate in % after 7d” value ([2]; 500 g/ha) did it give?
A: The value was 100%.
